From PMC7274154, “Identification and Characterization of GPCRs for Pyrokinin and CAPA Peptides in the Brown Marmorated Stink Bug, Halyomorpha halys (Hemiptera: Pentatomidae)” (Frontiers in Physiology, 2020)
“Also recorded” adds a separate entry of the source. Where no end group is shown, it is not given here.

Assays:
Assay type in all cases: cell-based, Halyomorpha halys
HalhaPK-R1a [1] = test: Concentration-response, calcium mobilization (FLIPR Calcium 6) in Sf9 cells expressing HalhaPK-R1a; details: for EC50: HalhaPK-R1a in Sf9 cells, intracellular calcium, FLIPR Calcium 6 fluorescence, at least three independent experiments, read-out: Half-maximum effective concentration (EC50)
Description: (§1) Five micrograms of each purified pIB/HalhaPK-R (or CAPA-R) plasmid and 15 μL of Cellfectin II reagent (Thermo Fisher Scientific) were diluted into 500 μL of serum free Insectagro Sf9 medium (Corning, Corning, NY, United States) and allowed to incubate for 10 min at room temperature, after which they were mixed together and allowed to incubate for an additional 15–20 min. Each pIB/HalhaPK-R (or CAPA-R) Cellfectin mixture was then added to T-25 cell culture flasks containing Sf9 cells at 50% confluency and incubated overnight at 28°C. The following morning the media was removed from each flask and replaced with media containing 20 μg/mL blasticidin (Corning). Each transfected cell line was cultured in the presence of 20 μg/mL blasticidin for ∼3 weeks until a blasticidin-resistant cell line was established, after which the blasticidin concentration was reduced to 10 μg/mL and the cell lines were frozen prior to testing in functional assays.
(§2) Peptides encoded by H. halys pyrokinin and capa genes used in this study have been recently identified ([Ahn and Choi, 2018]). Four peptides (>95% purity): PK2 (FYAPFSPRLa), CAPA-PVK1 ([…]a), CAPA-PVK2 (EQLIPFPRVa), and CAPA-DH (= PK1-like, […]a) were synthesized to contain an amide group on their C-termini (Peptide 2.0 Inc., Chantilly, VA, United States). Peptides were solubilized in water, aliquoted into 2–20 nM working stocks, dried using a DNA120 SpeedVac Concentrator (Thermo Scientific), and frozen at –20°C until use in binding assays.
(§3) For each cell line expressing a specific H. halys PRXamide receptor, cells were thawed and cultured for at least three passages in a suspension culture containing blasticidin prior to functional assays. The transfected cell lines were grown as 20 mL suspension cultures in 50 mL-Erlenmeyer flasks with a screw cap, and shaken at 145 rpm at 28°C. For functional assays, cells were taken from a suspension culture in the exponential growth phase, and ∼50,000 cells were plated into each well of a tissue culture-treated, black-walled, 96-well plate (Corning). The plated cells were then incubated at 28°C for 48 h, after which the media was removed from the plates and the wells were rinsed with serum-free media, then loaded with 95 μL of 1X FLIPR Calcium 6 assay reagent (Molecular Devices, Sunnyvale, CA, United States). Plates were incubated at room temperature for 60 min then transferred to a FlexStation 3 Multi-Mode Microplate Reader (Molecular Devices) to measure cell fluorescence intensity from intracellular calcium influx after peptide-induced receptor activation. Wells of cells were then treated with 5 μL of water or 20X concentrations of each peptide using the automated injection system of the FlexStation plate reader. In all experiments, fluorescence was measured every 5 s for 30 s prior to treatment and for 2 min after exposure. In all cases, the maximum response obtained occurred ∼20 s after exposure to ligand. The mean response of four wells receiving the same treatment was calculated and expressed as a change in fluorescence from baseline (prior to treatment) to maximum response. For initial screening, each cell line was exposed to a single concentration of 500 nM of each peptide or control. Compounds that elicited responses were tested further in concentration-response experiments. […]

HalhaPK-R1b [2] = test: Concentration-response, calcium mobilization (FLIPR Calcium 6) in Sf9 cells expressing HalhaPK-R1b; details: for EC50: HalhaPK-R1b in Sf9 cells, intracellular calcium, FLIPR Calcium 6 fluorescence, at least three independent experiments, read-out: Half-maximum effective concentration (EC50)
Description: as §1, §2, §3

HalhaPK-R2 [3] = test: Concentration-response, calcium mobilization (FLIPR Calcium 6) in Sf9 cells expressing HalhaPK-R2; details: for EC50: HalhaPK-R2 in Sf9 cells, intracellular calcium, FLIPR Calcium 6 fluorescence, at least three independent experiments, read-out: Half-maximum effective concentration (EC50); for Response in functional assay (words): HalhaPK-R2, Sf9 cells, concentration-response
Description: as §1, §2
(§4) For each cell line expressing a specific H. halys PRXamide receptor, cells were thawed and cultured for at least three passages in a suspension culture containing blasticidin prior to functional assays. The transfected cell lines were grown as 20 mL suspension cultures in 50 mL-Erlenmeyer flasks with a screw cap, and shaken at 145 rpm at 28°C. For functional assays, cells were taken from a suspension culture in the exponential growth phase, and ∼50,000 cells were plated into each well of a tissue culture-treated, black-walled, 96-well plate (Corning). The plated cells were then incubated at 28°C for 48 h, after which the media was removed from the plates and the wells were rinsed with serum-free media, then loaded with 95 μL of 1X FLIPR Calcium 6 assay reagent (Molecular Devices, Sunnyvale, CA, United States). Plates were incubated at room temperature for 60 min then transferred to a FlexStation 3 Multi-Mode Microplate Reader (Molecular Devices) to measure cell fluorescence intensity from intracellular calcium influx after peptide-induced receptor activation. Wells of cells were then treated with 5 μL of water or 20X concentrations of each peptide using the automated injection system of the FlexStation plate reader. In all experiments, fluorescence was measured every 5 s for 30 s prior to treatment and for 2 min after exposure. In all cases, the maximum response obtained occurred ∼20 s after exposure to ligand. The mean response of four wells receiving the same treatment was calculated and expressed as a change in fluorescence from baseline (prior to treatment) to maximum response. For initial screening, each cell line was exposed to a single concentration of 500 nM of each peptide or control. Compounds that elicited responses were tested further in concentration-response experiments. Concentration-response curves and EC50 values were generated using the variable slope, four parameter non-linear regression function of GraphPad Prism data analysis (GraphPad Software, Inc., San Diego, CA, United States). Each cell line was tested for its response to peptides in at least three independent experiments.

HalhaPK-R3a [4] = test: Concentration-response, calcium mobilization (FLIPR Calcium 6) in Sf9 cells expressing HalhaPK-R3a; details: for EC50: HalhaPK-R3a in Sf9 cells, intracellular calcium, FLIPR Calcium 6 fluorescence, at least three independent experiments, read-out: Half-maximum effective concentration (EC50); for Response in functional assay (words): HalhaPK-R3a, Sf9 cells, concentration-response
Description: as §1, §2, §4

HalhaPK-R3b [5] = test: Concentration-response, calcium mobilization (FLIPR Calcium 6) in Sf9 cells expressing HalhaPK-R3b; details: for EC50: HalhaPK-R3b in Sf9 cells, intracellular calcium, FLIPR Calcium 6 fluorescence, at least three independent experiments, read-out: Half-maximum effective concentration (EC50); for Response in functional assay (words): HalhaPK-R3b, Sf9 cells, concentration-response
Description: as §1, §2, §4

HalhaCAPA-R = test: Concentration-response, calcium mobilization (FLIPR Calcium 6) in Sf9 cells expressing HalhaCAPA-R; details: for EC50: HalhaCAPA-R in Sf9 cells, intracellular calcium, FLIPR Calcium 6 fluorescence, at least three independent experiments, read-out: Half-maximum effective concentration (EC50); for Response in functional assay (words): HalhaCAPA-R, Sf9 cells, concentration-response
Description: as §1, §2, §4

HalhaPK-R1a [6] = test: Initial screening at 500 nM, Sf9 cells expressing HalhaPK-R1a; details: three independent experiments
Description: as §1, with “Each transfected cell line was cultured in the presence of 20 μg/mL blasticidin for ∼3 weeks until a blasticidin-resistant cell line was established, after which the blasticidin concentration was reduced to 10 μg/mL and the cell lines were frozen prior to testing in functional assays.” left out
(§5) For each cell line expressing a specific H. halys PRXamide receptor, cells were thawed and cultured for at least three passages in a suspension culture containing blasticidin prior to functional assays. […] Plates were incubated at room temperature for 60 min then transferred to a FlexStation 3 Multi-Mode Microplate Reader (Molecular Devices) to measure cell fluorescence intensity from intracellular calcium influx after peptide-induced receptor activation. Wells of cells were then treated with 5 μL of water or 20X concentrations of each peptide using the automated injection system of the FlexStation plate reader. In all experiments, fluorescence was measured every 5 s for 30 s prior to treatment and for 2 min after exposure. […]

HalhaPK-R1b [7] = test: Initial screening at 500 nM, Sf9 cells expressing HalhaPK-R1b; details: three independent experiments
Description: as §1, with “Each transfected cell line was cultured in the presence of 20 μg/mL blasticidin for ∼3 weeks until a blasticidin-resistant cell line was established, after which the blasticidin concentration was reduced to 10 μg/mL and the cell lines were frozen prior to testing in functional assays.” left out
as §5

HalhaPK-R2 [8] = test: Initial screening at 500 nM, Sf9 cells expressing HalhaPK-R2; details: three independent experiments
Description: as §1, with “Each transfected cell line was cultured in the presence of 20 μg/mL blasticidin for ∼3 weeks until a blasticidin-resistant cell line was established, after which the blasticidin concentration was reduced to 10 μg/mL and the cell lines were frozen prior to testing in functional assays.” left out
as §5

HalhaPK-R3a [9] = test: Initial screening at 500 nM, Sf9 cells expressing HalhaPK-R3a; details: three independent experiments
Description: as §1, with “Each transfected cell line was cultured in the presence of 20 μg/mL blasticidin for ∼3 weeks until a blasticidin-resistant cell line was established, after which the blasticidin concentration was reduced to 10 μg/mL and the cell lines were frozen prior to testing in functional assays.” left out
as §5

HalhaPK-R3b [10] = test: Initial screening at 500 nM, Sf9 cells expressing HalhaPK-R3b; details: three independent experiments
Description: as §1, with “Each transfected cell line was cultured in the presence of 20 μg/mL blasticidin for ∼3 weeks until a blasticidin-resistant cell line was established, after which the blasticidin concentration was reduced to 10 μg/mL and the cell lines were frozen prior to testing in functional assays.” left out
as §5

EC50 (HalhaPK-R1a [1]) [nM] | EC50 (HalhaPK-R1b [2]) [nM] | EC50 (HalhaPK-R2 [3]) [nM] | EC50 (HalhaPK-R3a [4]) [nM] | EC50 (HalhaPK-R3b [5]) [nM] | EC50 (HalhaCAPA-R) [nM] | Compound | Response in functional assay (words) (HalhaCAPA-R) | Response in functional assay (words) (HalhaPK-R3a [4]) | Ligand-induced receptor activation (response in words) (HalhaPK-R1a [6]) | Ligand-induced receptor activation (response in words) (HalhaPK-R1b [7]) | Ligand-induced receptor activation (response in words) (HalhaPK-R2 [8]) | Ligand-induced receptor activation (response in words) (HalhaPK-R3a [9]) | Ligand-induced receptor activation (response in words) (HalhaPK-R3b [10]) | other results
> 1000 | > 1000 | > 1000 | > 1000 | > 1000 | 80 | CC(C)C[C@H](NC(=O)CNC(=O)[C@H](C)NC(=O)[C@@H](N)CC(=O)O)C(=O)N[C@@H](Cc1ccccc1)C(=O)N1CCC[C@H]1C(=O)N[C@@H](Cc1ccccc1)C(=O)N1CCC[C@H]1C(=O)N[C@@H](CCCNC(=N)N)C(=O)N[C@H](C(N)=O)C(C)C [CAPA-PVK1] | responded specifically to PVK1 and PVK2 peptides; also recorded: concentration-dependent response to PVK1 and PVK2 (Figure 2), with similar sensitivity and degree of absolute magnitude | – | – | – | – | – | – | –
> 1000 | > 1000 | > 1000 | > 1000 | > 1000 | 57 | CC[C@H](C)[C@H](NC(=O)[C@H](CC(C)C)NC(=O)[C@H](CCC(N)=O)NC(=O)[C@@H](N)CCC(=O)O)C(=O)N1CCC[C@H]1C(=O)N[C@@H](Cc1ccccc1)C(=O)N1CCC[C@H]1C(=O)N[C@@H](CCCNC(=N)N)C(=O)N[C@H](C(N)=O)C(C)C [CAPA-PVK2] | responded specifically to PVK1 and PVK2 peptides; also recorded: concentration-dependent response to PVK1 and PVK2 (Figure 2), with similar sensitivity and degree of absolute magnitude | – | – | – | – | – | – | –
> 1000 | 420 | 35 | 199 | 142 | > 1000 | FYAPFSPRL-NH2 [PBAN/PK2] | – | positive concentration-dependent activity | responded to PK2 and CAPA-DH peptides to varying degrees | responded to PK2 and CAPA-DH peptides to varying degrees | responded to PK2 and CAPA-DH peptides to varying degrees | responded to PK2 and CAPA-DH peptides to varying degrees | responded to PK2 and CAPA-DH peptides to varying degrees | Response in functional assay (words) (HalhaPK-R1a [1]; HalhaPK-R1a, Sf9 cells, concentration-response): positive concentration-dependent activity; also recorded: responded weakly; Response in functional assay (words) (HalhaPK-R1b [2]; HalhaPK-R1b, Sf9 cells, concentration-response): positive concentration-dependent activity; also recorded: responded weakly; Response in functional assay (words) (HalhaPK-R2 [3]): strongest response; also recorded: responded strongly; also recorded: positive concentration-dependent activity; also recorded: much more sensitive to PK2 than the PK1 peptide; Response in functional assay (words) (HalhaPK-R3b [5]): positive concentration-dependent activity; also recorded: strongly responded to both PK1 and PK2 peptides
> 1000 | > 1000 | 800 | 660 | 91 | > 1000 | NGASGNGGLWFGPRL-NH2 [CAPA-DH/PK1] | – | concentration-dependent responses | responded to PK2 and CAPA-DH peptides to varying degrees | responded to PK2 and CAPA-DH peptides to varying degrees | responded to PK2 and CAPA-DH peptides to varying degrees | responded to PK2 and CAPA-DH peptides to varying degrees | responded to PK2 and CAPA-DH peptides to varying degrees | Response in functional assay (words) (HalhaPK-R2 [3]; listed as CAPA-DH): concentration-dependent responses; Response in functional assay (words) (HalhaPK-R2 [3]; listed as PK1): moderate response; Response in functional assay (words) (HalhaPK-R3b [5]; listed as CAPA-DH): highest sensitivity to PK1 (= CAPA-DH), especially for HalhaPK-R3b; also recorded: concentration-dependent responses; also recorded: most sensitive to CAPA-DH among the six GPCRs; Response in functional assay (words) (HalhaPK-R3b [5]; listed as PK1): strongest response to PK1; also recorded: strongly responded to both PK1 and PK2 peptides
